target: T1, human GluN1/GluN2B NMDA receptors (Homo sapiens, UniProt Q13224); assay: Cell-based calcium flux (FLIPR) assay on cloned human NR1/NR2B ion channels expressed in mammalian cells (standard and HTS buffer variants); details: standard assay buffer (0.5 mM MgCl2 in dye loading buffer; 137 mM NaCl, 4 mM KCl in assay buffer), human GluN1/GluN2B, read-out: NR2B IC50 (μM) standard assay;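 note: stable Tet-On inducible cell line, Ca2+ influx triggered by glutamate at about EC40 plus 10 µM glycine, fluorescent dye read-out over 5 min, normalized to control wells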
T1 construct: expressed in transfected cells
T1 sequence (Q13224 27-1484, other chains not shown): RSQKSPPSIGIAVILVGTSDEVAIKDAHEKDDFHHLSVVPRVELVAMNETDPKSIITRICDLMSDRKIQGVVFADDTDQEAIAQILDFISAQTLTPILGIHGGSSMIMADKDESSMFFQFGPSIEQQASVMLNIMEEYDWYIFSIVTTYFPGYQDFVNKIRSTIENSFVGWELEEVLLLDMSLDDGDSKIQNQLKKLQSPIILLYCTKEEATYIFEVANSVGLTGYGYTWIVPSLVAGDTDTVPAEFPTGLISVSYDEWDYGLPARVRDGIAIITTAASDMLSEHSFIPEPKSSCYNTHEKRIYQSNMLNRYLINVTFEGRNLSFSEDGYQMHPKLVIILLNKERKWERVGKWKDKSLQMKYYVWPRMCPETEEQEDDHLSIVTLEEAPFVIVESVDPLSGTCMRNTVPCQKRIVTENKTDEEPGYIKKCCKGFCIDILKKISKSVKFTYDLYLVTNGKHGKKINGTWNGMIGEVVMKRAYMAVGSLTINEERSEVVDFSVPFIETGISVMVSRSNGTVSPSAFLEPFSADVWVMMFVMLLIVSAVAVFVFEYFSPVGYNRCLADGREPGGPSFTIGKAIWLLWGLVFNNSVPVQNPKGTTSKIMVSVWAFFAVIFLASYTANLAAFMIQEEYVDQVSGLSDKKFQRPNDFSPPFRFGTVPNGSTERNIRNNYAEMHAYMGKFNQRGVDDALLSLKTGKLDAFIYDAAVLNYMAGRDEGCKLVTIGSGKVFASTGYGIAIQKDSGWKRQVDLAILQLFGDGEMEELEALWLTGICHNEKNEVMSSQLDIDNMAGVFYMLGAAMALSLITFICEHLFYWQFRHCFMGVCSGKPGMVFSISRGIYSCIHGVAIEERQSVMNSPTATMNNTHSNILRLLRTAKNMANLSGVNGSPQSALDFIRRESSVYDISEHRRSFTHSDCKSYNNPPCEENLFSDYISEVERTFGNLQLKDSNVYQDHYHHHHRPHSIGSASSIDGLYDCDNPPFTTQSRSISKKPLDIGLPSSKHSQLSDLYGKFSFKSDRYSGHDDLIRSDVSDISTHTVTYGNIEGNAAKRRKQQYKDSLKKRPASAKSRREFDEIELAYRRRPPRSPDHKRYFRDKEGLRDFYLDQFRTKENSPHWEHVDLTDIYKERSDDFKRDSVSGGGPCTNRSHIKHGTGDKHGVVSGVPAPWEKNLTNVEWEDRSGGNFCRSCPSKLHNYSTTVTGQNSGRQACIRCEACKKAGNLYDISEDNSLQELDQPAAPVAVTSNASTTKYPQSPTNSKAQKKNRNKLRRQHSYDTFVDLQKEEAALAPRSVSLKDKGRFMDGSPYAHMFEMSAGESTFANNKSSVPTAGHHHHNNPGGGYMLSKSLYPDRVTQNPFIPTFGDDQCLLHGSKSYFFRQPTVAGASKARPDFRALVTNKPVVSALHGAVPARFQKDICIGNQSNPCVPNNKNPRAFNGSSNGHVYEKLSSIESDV

Structure (SMILES)	IC50 [µM]
Cc1cccc(-c2cnc3c(c2)n(Cc2cncc(Cl)c2)c(=O)n3C)c1F [Example 371, 1-[(5-Chloro-3-pyridyl)methyl]-6-(2-fluoro-3-methyl-phenyl)-3-methyl-imidazo[4,5-b]pyridin-2-one]	0.19
Cc1cc(-c2cnc3c(c2)n(Cc2cncc(Cl)c2)c(=O)n3C)sc1Cl [Example 372, 6-(5-Chloro-4-methyl-2-thienyl)-1-[(5-chloro-3-pyridyl)methyl]-3-methyl-imidazo[4,5-b]pyridin-2-one]	6.64
Cn1c(=O)n(Cc2cncc(Cl)c2)c2cc(-c3ccc(C(F)(F)F)s3)cnc21 [Example 373, 1-[(5-Chloro-3-pyridyl)methyl]-3-methyl-6-[5-(trifluoromethyl)-2-thienyl]imidazo[4,5-b]pyridin-2-one]	9.72
Cc1cccc(-c2cnc3c(c2)n(Cc2cncc(Cl)c2)c(=O)n3C)c1 [Example 374, 1-[(5-Chloro-3-pyridyl)methyl]-3-methyl-6-(m-tolyl)imidazo[4,5-b]pyridin-2-one]	0.416
Cn1c(=O)n(Cc2cncc(Cl)c2)c2cc(-c3cccc(F)c3F)cnc21 [Example 375, 1-[(5-Chloro-3-pyridyl)methyl]-6-(2,3-difluorophenyl)-3-methyl-imidazo[4,5-b]pyridin-2-one]	1.51
Cn1c(=O)n(Cc2cccnn2)c2cc(-c3cccc(Cl)c3)cnc21 [Example 376, 6-(3-Chlorophenyl)-3-methyl-1-(pyridazin-3-ylmethyl)imidazo[4,5-b]pyridin-2-one]	0.056
Cn1c(=O)n(Cc2cccnn2)c2cc(-c3cccc(C(F)F)c3)cnc21 [Example 377, 6-[3-(Difluoromethyl)phenyl]-3-methyl-1-(pyridazin-3-ylmethyl)imidazo[4,5-b]pyridin-2-one]	0.03
Cn1c(=O)n(Cc2cccnn2)c2cc(-c3cccc(C(F)(F)F)c3)cnc21 [Example 378, 3-Methyl-1-(pyridazin-3-ylmethyl)-6-[3-(trifluoromethyl)phenyl]imidazo[4,5-b]pyridin-2-one]	0.031
Cc1cccc(-c2cnc3c(c2)n(Cc2cccnn2)c(=O)n3C)c1 [Example 379, 3-Methyl-6-(m-tolyl)-1-(pyridazin-3-ylmethyl)imidazo[4,5-b]pyridin-2-one]	0.033
Cn1c(=O)n(Cc2cccnn2)c2cc(-c3ccc(F)c(Cl)c3)cnc21 [Example 380, 6-(3-Chloro-4-fluoro-phenyl)-3-methyl-1-(pyridazin-3-ylmethyl)imidazo[4,5-b]pyridin-2-one]	0.016
Cc1cc(F)cc(-c2cnc3c(c2)n(Cc2cccnn2)c(=O)n3C)c1 [Example 381, 6-(3-Fluoro-5-methyl-phenyl)-3-methyl-1-(pyridazin-3-ylmethyl)imidazo[4,5-b]pyridin-2-one]	0.037
Cn1c(=O)n(Cc2cccnn2)c2cc(-c3ccc(F)c(C(F)(F)F)c3)cnc21 [Example 382, 6-[4-Fluoro-3-(trifluoromethyl)phenyl]-3-methyl-1-(pyridazin-3-ylmethyl)imidazo[4,5-b]pyridin-2-one]	0.016
Cn1c(=O)n(Cc2cccnn2)c2cc(-c3cc(F)cc(C(F)(F)F)c3)cnc21 [Example 383, 6-[3-Fluoro-5-(trifluoromethyl)phenyl]-3-methyl-1-(pyridazin-3-ylmethyl)imidazo[4,5-b]pyridin-2-one]	0.041
Cn1c(=O)n(Cc2cccnn2)c2cc(-c3ccc(Cl)c(C(F)(F)F)c3)cnc21 [Example 384, 6-[4-Chloro-3-(trifluoromethyl)phenyl]-3-methyl-1-(pyridazin-3-ylmethyl)imidazo[4,5-b]pyridin-2-one]	0.206
Cn1c(=O)n(Cc2cccnn2)c2cc(-c3cc(C(F)F)ccc3F)cnc21 [Example 385, 6-(5-(Difluoromethyl)-2-fluorophenyl)-3-methyl-1-(pyridazin-3-ylmethyl)-1,3-dihydro-2H-imidazo[4,5-b]pyridin-2-one]	0.653
Cn1c(=O)n(Cc2cccnc2)c2cc(-c3cc(C(F)F)ccc3F)cnc21 [Example 386, 6-(5-(Difluoromethyl)-2-fluorophenyl)-3-methyl-1-(pyridin-3-ylmethyl)-1,3-dihydro-2H-imidazo[4,5-b]pyridin-2-one]	1.11
Cn1c(=O)n(Cc2cccnn2)c2cc(-c3cc(F)c(F)c(C(F)(F)F)c3)cnc21 [Example 387, 6-[3,4-Difluoro-5-(trifluoromethyl)phenyl]-3-methyl-1-(pyridazin-3-ylmethyl)imidazo[4,5-b]pyridin-2-one]	0.022
CCC(=O)Cn1c(=O)n(C)c2ncc(-c3cccc(C(F)(F)F)c3)cc21 [Example 388, 3-Methyl-1-(2-oxobutyl)-6-[3-(trifluoromethyl)phenyl]imidazo[4,5-b]pyridin-2-one]	0.05
CCC(=O)Cn1c(=O)n(C)c2ncc(-c3ccc(F)c(C)c3)cc21 [Example 389, 6-(4-Fluoro-3-methyl-phenyl)-3-methyl-1-(2-oxobutyl)imidazo[4,5-b]pyridin-2-one]	0.017

Structure (SMILES)	IC50 [µM]
CCC(=O)Cn1c(=O)n(C)c2ncc(-c3ccc(F)c(F)c3)cc21 [Example 390, 6-(3,4-Difluorophenyl)-3-methyl-1-(2-oxobutyl)imidazo[4,5-b]pyridin-2-one]	0.019
CCC(=O)Cn1c(=O)n(C)c2ncc(-c3ccc(F)c(C)c3F)cc21 [Example 391, 6-(2,4-Difluoro-3-methyl-phenyl)-3-methyl-1-(2-oxobutyl)imidazo[4,5-b]pyridin-2-one]	0.026
CCC(=O)Cn1c(=O)n(C)c2ncc(-c3cccc(C4CC4)c3)cc21 [Example 392, 6-(3-Cyclopropylphenyl)-3-methyl-1-(2-oxobutyl)imidazo[4,5-b]pyridin-2-one]	0.324
Cc1c(F)ccc(-c2cnc3c(c2)n(CC(=O)N2CC(F)C2)c(=O)n3C)c1F [Example 400, 6-(2,4-Difluoro-3-methyl-phenyl)-1-[2-(3-fluoroazetidin-1-yl)-2-oxo-ethyl]-3-methyl-imidazo[4,5-b]pyridin-2-one]	0.017
Cc1cc(-c2cnc3c(c2)n(CC(=O)N2CC(F)C2)c(=O)n3C)ccc1F [Example 401, 1-[2-(3-Fluoroazetidin-1-yl)-2-oxo-ethyl]-6-(4-fluoro-3-methyl-phenyl)-3-methyl-imidazo[4,5-b]pyridin-2-one]	0.016
Cn1c(=O)n(CC(=O)N2CC(F)C2)c2cc(-c3cc(F)c(F)c(F)c3)cnc21 [Example 402, 1-[2-(3-Fluoroazetidin-1-yl)-2-oxo-ethyl]-3-methyl-6-(3,4,5-trifluorophenyl)imidazo[4,5-b]pyridin-2-one]	0.016
Cn1c(=O)n(CC(=O)N2CC(F)C2)c2cc(-c3ccc(F)c(F)c3)cnc21 [Example 403, 6-(3,4-Difluorophenyl)-1-[2-(3-fluoroazetidin-1-yl)-2-oxo-ethyl]-3-methyl-imidazo[4,5-b]pyridin-2-one]	0.042
Cc1cccc(-c2cnc3c(c2)n(CC(=O)N2CC(F)C2)c(=O)n3C)c1 [Example 404, 1-[2-(3-Fluoroazetidin-1-yl)-2-oxo-ethyl]-3-methyl-6-(m-tolyl)imidazo[4,5-b]pyridin-2-one]	0.05
Cc1cccc(-c2cnc3c(c2)n(CC(=O)N2CC(F)C2)c(=O)n3C)c1F [Example 405, 1-[2-(3-Fluoroazetidin-1-yl)-2-oxo-ethyl]-6-(2-fluoro-3-methyl-phenyl)-3-methyl-imidazo[4,5-b]pyridin-2-one]	0.022
Cn1c(=O)n(CC(=O)N2CC(F)C2)c2cc(-c3cccc(Cl)c3)cnc21 [Example 406, 6-(3-Chlorophenyl)-1-[2-(3-fluoroazetidin-1-yl)-2-oxo-ethyl]-3-methyl-imidazo[4,5-b]pyridin-2-one]	0.016
Cn1c(=O)n(CC(=O)N2CC(F)C2)c2cc(-c3ccc(F)c(C(F)(F)F)c3)cnc21 [Example 407, 1-[2-(3-Fluoroazetidin-1-yl)-2-oxo-ethyl]-6-[4-fluoro-3-(trifluoromethyl)phenyl]-3-methyl-imidazo[4,5-b]pyridin-2-one]	0.031
Cn1c(=O)n(CC(=O)N2CCC2)c2cc(-c3cccc(C(F)(F)F)c3)cnc21 [Example 408, 1-[2-(Azetidin-1-yl)-2-oxo-ethyl]-3-methyl-6-[3-(trifluoromethyl)phenyl]imidazo[4,5-b]pyridin-2-one]	0.042
Cc1c(F)ccc(-c2cnc3c(c2)n(CC(=O)N2CCC2)c(=O)n3C)c1F [Example 409, 1-[2-(Azetidin-1-yl)-2-oxo-ethyl]-6-(2,4-difluoro-3-methyl-phenyl)-3-methyl-imidazo[4,5-b]pyridin-2-one]	0.008
Cn1c(=O)n(CC(=O)N2CCC2)c2cc(-c3cc(F)c(F)c(F)c3)cnc21 [Example 411, 1-[2-(Azetidin-1-yl)-2-oxo-ethyl]-3-methyl-6-(3,4,5-trifluorophenyl)imidazo[4,5-b]pyridin-2-one]	0.014
Cn1c(=O)n(CC(=O)N2CCC2)c2cc(-c3cc(F)cc(F)c3)cnc21 [Example 412, 1-[2-(Azetidin-1-yl)-2-oxo-ethyl]-6-(3,5-difluorophenyl)-3-methyl-imidazo[4,5-b]pyridin-2-one]	0.027
Cc1cc(-c2cnc3c(c2)n(CC(=O)N2CC(F)(F)C2)c(=O)n3C)ccc1F [Example 413, 1-(2-(3,3-Difluoroazetidin-1-yl)-2-oxoethyl)-6-(4-fluoro-3-methylphenyl)-3-methyl-1H-imidazo[4,5-b]pyridin-2(3H)-one]	0.009
Cc1c(F)ccc(-c2cnc3c(c2)n(CC(=O)N2CC(F)(F)C2)c(=O)n3C)c1F [Example 414, 1-[2-(3,3-Difluoroazetidin-1-yl)-2-oxo-ethyl]-6-(2,4-difluoro-3-methyl-phenyl)-3-methyl-imidazo[4,5-b]pyridin-2-one]	0.013
Cn1c(=O)n(CC(=O)N2CC(F)(F)C2)c2cc(-c3cccc(C(F)(F)F)c3F)cnc21 [Example 415, 1-[2-(3,3-Difluoroazetidin-1-yl)-2-oxo-ethyl]-6-[2-fluoro-3-(trifluoromethyl)phenyl]-3-methyl-imidazo[4,5-b]pyridin-2-one]	0.015
